Species: Rattus norvegicus
Experiment: Open TG-GATES - Regimen: Single
Assay type: toxicity, organism-based, Sprague-Dawley
Set-up: regimen Single, gender Male, age 6 weeks
Conditions: in vivo, po, 100 mg/kg, route gavage, dose level Middle; for APTT / Bas / Eos / Fbg / Hb / Ht / Lym / MCH / MCHC / MCV / Mono / Neu / PT / Plat / RBC / Ret / WBC: tissue Blood; for KIDNEY_L / KIDNEY_R / KIDNEY_TOTAL: tissue Kidney; for LIVER: tissue Liver; for A/G / ALP / ALT / AST / BUN / CRE / Ca / Cl / DBIL / GLC / IP / K / LDH / Na / PL / RALB / TBIL / TC / TG / TP / gamma-GTP: tissue Plasma

Cc1cccc(Nc2ccccc2C(=O)O)c1C [MEFENAMIC ACID]
TERMINAL_BW (3 h): 218.5 g
APTT (3 h): 19.2 s
Bas (3 h): 0%
Eos (3 h): 0.8%
Fbg (3 h): 218.2 mg/dL
Hb (3 h): 13.3 g/dL
Ht (3 h): 37.3%
Lym (3 h): 80%
MCH (3 h): 21.8 pg
MCHC (3 h): 35.5%
MCV (3 h): 61.4 fL
Mono (3 h): 2.2%
Neu (3 h): 15%
PT (3 h): 12.2 s
Plat (3 h): 114.3 x10_4/uL
RBC (3 h): 608.6 x10_4/ul
Ret (3 h): 7.4%
WBC (3 h): 104.3 x10_2/uL
KIDNEY_L (3 h): 1 g
KIDNEY_R (3 h): 1 g
KIDNEY_TOTAL (3 h): 1.9 g
LIVER (3 h): 9.9 g
A/G (3 h): 1.6
ALP (3 h): 1058 IU/L
ALT (3 h): 37.6 IU/L
AST (3 h): 67.8 IU/L
BUN (3 h): 12.4 mg/dL
CRE (3 h): 0.4 mg/dL
Ca (3 h): 10.7 mg/dL
Cl (3 h): 103.4 meq/L
DBIL (3 h): 0.074 mg/dL
GLC (3 h): 196.8 mg/dL
IP (3 h): 8.6 mg/dL
K (3 h): 4.1 meq/L
LDH (3 h): 184 IU/L
Na (3 h): 140.8 meq/L
PL (3 h): 141.4 mg/dL
RALB (3 h): 3.4 g/dL
TBIL (3 h): 0.1 mg/dL
TC (3 h): 78.6 mg/dL
TG (3 h): 43.4 mg/dL
TP (3 h): 5.5 g/dL
gamma-GTP (3 h): 1.6 IU/L
TERMINAL_BW (6 h): 215.4 g
APTT (6 h): 18.2 s
Bas (6 h): 0%
Eos (6 h): 1%
Fbg (6 h): 225.6 mg/dL
Hb (6 h): 13 g/dL
Ht (6 h): 37.2%
Lym (6 h): 76.2%
MCH (6 h): 21.7 pg
MCHC (6 h): 35.1%
MCV (6 h): 61.8 fL
Mono (6 h): 2.6%
Neu (6 h): 18.6%
PT (6 h): 12.6 s
Plat (6 h): 108.7 x10_4/uL
RBC (6 h): 602.4 x10_4/ul
Ret (6 h): 7.6%
WBC (6 h): 76.8 x10_2/uL
KIDNEY_L (6 h): 1 g
KIDNEY_R (6 h): 1 g
KIDNEY_TOTAL (6 h): 2 g
LIVER (6 h): 9.6 g
A/G (6 h): 1.6
ALP (6 h): 782.4 IU/L
ALT (6 h): 36.8 IU/L
AST (6 h): 64.2 IU/L
BUN (6 h): 11 mg/dL
CRE (6 h): 0.3 mg/dL
Ca (6 h): 10.5 mg/dL
Cl (6 h): 103 meq/L
DBIL (6 h): 0.064 mg/dL
GLC (6 h): 185.4 mg/dL
IP (6 h): 9 mg/dL
K (6 h): 4.1 meq/L
LDH (6 h): 160.4 IU/L
Na (6 h): 139.8 meq/L
PL (6 h): 139.6 mg/dL
RALB (6 h): 3.3 g/dL
TBIL (6 h): 0.1 mg/dL
TC (6 h): 77.6 mg/dL
TG (6 h): 48.4 mg/dL
TP (6 h): 5.4 g/dL
gamma-GTP (6 h): 1.4 IU/L
TERMINAL_BW (9 h): 211.6 g
APTT (9 h): 17.9 s
Bas (9 h): 0%
Eos (9 h): 1%
Fbg (9 h): 216.4 mg/dL
Hb (9 h): 13.6 g/dL
Ht (9 h): 38.1%
Lym (9 h): 77.2%
MCH (9 h): 22.3 pg
MCHC (9 h): 35.8%
MCV (9 h): 62.4 fL
Mono (9 h): 2.2%
Neu (9 h): 18.2%
PT (9 h): 12.7 s
Plat (9 h): 112.5 x10_4/uL
RBC (9 h): 611 x10_4/ul
Ret (9 h): 7.2%
WBC (9 h): 77.1 x10_2/uL
KIDNEY_L (9 h): 0.9 g
KIDNEY_R (9 h): 0.9 g
KIDNEY_TOTAL (9 h): 1.8 g
LIVER (9 h): 8.6 g
A/G (9 h): 1.6
ALP (9 h): 955.2 IU/L
ALT (9 h): 30.8 IU/L
AST (9 h): 61.6 IU/L
BUN (9 h): 12.2 mg/dL
CRE (9 h): 0.4 mg/dL
Ca (9 h): 10.4 mg/dL
Cl (9 h): 103 meq/L
DBIL (9 h): 0.06 mg/dL
GLC (9 h): 196.2 mg/dL
IP (9 h): 9.4 mg/dL
K (9 h): 3.7 meq/L
LDH (9 h): 184.6 IU/L
Na (9 h): 140.2 meq/L
PL (9 h): 127.8 mg/dL
RALB (9 h): 3.4 g/dL
TBIL (9 h): 0.1 mg/dL
TC (9 h): 72.4 mg/dL
TG (9 h): 29.6 mg/dL
TP (9 h): 5.5 g/dL
gamma-GTP (9 h): 1 IU/L
TERMINAL_BW (24 h): 227 g
APTT (24 h): 17.3 s
Bas (24 h): 0%
Eos (24 h): 1%
Fbg (24 h): 209.2 mg/dL
Hb (24 h): 13 g/dL
Ht (24 h): 37.3%
Lym (24 h): 72.6%
MCH (24 h): 22.1 pg
MCHC (24 h): 35%
MCV (24 h): 63.2 fL
Mono (24 h): 2.8%
Neu (24 h): 21.2%
PT (24 h): 12.1 s
Plat (24 h): 119.7 x10_4/uL
RBC (24 h): 590.4 x10_4/ul
Ret (24 h): 7%
WBC (24 h): 99.5 x10_2/uL
KIDNEY_L (24 h): 1 g
KIDNEY_R (24 h): 1.1 g
KIDNEY_TOTAL (24 h): 2.1 g
LIVER (24 h): 11 g
A/G (24 h): 1.6
ALP (24 h): 883 IU/L
ALT (24 h): 39.2 IU/L
AST (24 h): 67.2 IU/L
BUN (24 h): 14.2 mg/dL
CRE (24 h): 0.4 mg/dL
Ca (24 h): 10.9 mg/dL
Cl (24 h): 102.8 meq/L
DBIL (24 h): 0.092 mg/dL
GLC (24 h): 190.6 mg/dL
IP (24 h): 7.5 mg/dL
K (24 h): 4.3 meq/L
LDH (24 h): 196.4 IU/L
Na (24 h): 139.8 meq/L
PL (24 h): 151.8 mg/dL
RALB (24 h): 3.5 g/dL
TBIL (24 h): 0.1 mg/dL
TC (24 h): 81 mg/dL
TG (24 h): 88.8 mg/dL
TP (24 h): 5.6 g/dL
gamma-GTP (24 h): 1.4 IU/L

— ChEMBL document CHEMBL3885861, “Open TG-GATES”
